In patent US8309602B2, “Multi-substituted diarylanilines as non-nucleoside HIV reverse transcriptase inhibitors, and preparation and use thereof” (Institute of Pharmacology and Toxicology, priority 2007, dated 2012):
≈ marks a conversion by molar mass, not a printed value. Like-named read-outs stand apart in the source and are kept apart here.

Assays:
Format in all cases: cell-based
HIV virus (IIIB) = test: Assay of anti-HIV activity (H9 cell model), P24 antigen ELISA; details: for SI (CC50/EC50): H9 cell line, ratio of cytotoxicity CC50 to activity EC50; for EC50: H9 cell line infected with HIV (IIIB), 50% inhibition of virus replication
Method: Reference document (J. Med. Chem. 2004, 47, 756-760). Lymphocyte H9 was cultured at 37° C. in culture medium 1640 and 5% CO2. The tested compound was initially dissolved in DMSO, and then diluted with culture medium to conventional screening concentration: 100, 20, 4, 0.8 μg/mL. The cultured H9 cells were divided into two parts, wherein one of the parts was infected with HIV virus (IIIB) (m.i.o. 0.1-0.01 infectious Units/cell), which was used for assaying activity. The other part of the cells was not added with viruses but only with culture medium, which was used for assaying toxicity. The two parts of the cells were cultured under completely identical conditions (37° C., 5% CO2) for 4 hours, washed with fresh culture medium for three times, and then were added respectively to the prepared tested samples of different concentrations or to culture medium (the latter was positive infection control or negative drug control), and meanwhile AZT was used as positive drug control. All these cells were cultured at 37° C. in 5% CO2 for 4 days. In the fourth day, the cell membranes of the cells infected by viruses were removed, and the cytosol was tested by P24 antigen ELISA method to assay the activity of the sample, expressed using EC50. EC50 was an effective concentration when virus replication was inhibited by 50%. The part of the cells without viruses added were tested by the method of counting cells to assay the toxicity of the sample, expressed using CC50. CC50 was a concentration when growth cells were killed by 50%.

HIV-1IIIB virus strains = test: Assay of anti-HIV activity (MT-2 cell model), p24 antigen ELISA; details: for EC50: MT-2 cell line infected with HIV-1IIIB, 50% virus inhibition; for SI (CC50/EC50): MT-2 cell line, ratio of cytotoxicity CC50 to activity EC50
Method: Reference documents (Jiang, S., et al. Antimicrob. Agents Chemother. 2004, 48, 4349-4359). In 96 wells culture plate, 50 μl of different concentrations of compound solutions were mixed with HIV-1IIIB virus strains (100 TCID50) in the same volume, incubated at 37° C. for 30 minutes, added with 100 μl TM-2 cell (1×10^5/mL, RPIM 1640 culture medium containing 10% serum), mixed uniformly, and incubated at 37° C. overnight. In the second day, 150 μl supernatant was sucked off and supplemented with fresh culture medium in the same volume, the compound solutions were incubated continuously at 37° C. for 3 days, and the cell pathology effect (CPE) was recorded in the fourth day. Then 100 μl cultured supernatant was sucked up to determine p24 antigen therein with 5% Triton X-100 lytic virus particles by using ELISA method. Briefly, HIVIG (2 μg/ml) was used to encapsulate enzyme standard plate, sealed with 1% fat-free milk, and then added with virus lytic solution, incubated at 37° C. for 60 minutes. After the plate was washed completely, anti-p24 monoclonal antibody-183-12H-5C, goat anti-mouse antibody labeled with biotin and horse radish peroxidase labeled with avidin were added. Then the compounds were developed with TMB, and the light density was tested at 450 nm. The virus inhibition concentration of 50% (EC50) of the compounds was calculated by using CalcuSyn software.

[1] = Cytotoxicity test of compound in H9 cells; details: human, H9 cell line, uninfected cells
Method: (§1) Reference document (J. Med. Chem. 2004, 47, 756-760). Lymphocyte H9 was cultured at 37° C. in culture medium 1640 and 5% CO2. […] The cultured H9 cells were divided into two parts, wherein one of the parts was infected with HIV virus (IIIB) (m.i.o. 0.1-0.01 infectious Units/cell), which was used for assaying activity. The other part of the cells was not added with viruses but only with culture medium, which was used for assaying toxicity. The two parts of the cells were cultured under completely identical conditions (37° C., 5% CO2) for 4 hours, washed with fresh culture medium for three times, and then were added respectively to the prepared tested samples of different concentrations or to culture medium (the latter was positive infection control or negative drug control), and meanwhile AZT was used as positive drug control. All these cells were cultured at 37° C. in 5% CO2 for 4 days. […] The part of the cells without viruses added were tested by the method of counting cells to assay the toxicity of the sample, expressed using CC50. […] Reference documents (Jiang, S., et al. Antimicrob. Agents Chemother. 2004, 48, 4349-4359). In 96 wells culture plate, 50 μl of different concentrations of compound solutions were mixed with PBS in the same volume, incubated at 37° C. for 30 minutes, added with 100 μL TM-2 (or H9) cell (1×10^5/mL, RPIM 1640 culture medium containing 10% serum), mixed uniformly, and incubated at 37° C. overnight.

[2] = Cytotoxicity test of compound in MT-2 cells (XTT); details: human, MT-2 cell line, uninfected cells
Method: (§2) Reference documents (Jiang, S., et al. Antimicrob. Agents Chemother. 2004, 48, 4349-4359). In 96 wells culture plate, 50 μl of different concentrations of compound solutions were mixed with PBS in the same volume, incubated at 37° C. for 30 minutes, added with 100 μL TM-2 (or H9) cell (1×10^5/mL, RPIM 1640 culture medium containing 10% serum), mixed uniformly, and incubated at 37° C. overnight.

H9 cells = test: Cytotoxicity test of compound in H9 cells; details: H9 cell line, uninfected cells
Method: as §1

MT-2 cells = test: Cytotoxicity test of compound in MT-2 cells (XTT); details: MT-2 cell line, uninfected cells
Method: as §2

[3] = Human immunodeficiency virus 1, read-out: EC50
[4] = Human immunodeficiency virus 1, MT2, read-out: EC50

Structure (SMILES) | SI (CC50/EC50) (HIV virus (IIIB)) | EC50 (HIV virus (IIIB); [3]) [µg/mL] | EC50 (HIV-1IIIB virus strains; [4]) [µg/mL] | SI (CC50/EC50) (HIV-1IIIB virus strains) | CC50 at 4 days ([1]; H9 lymphocyte cells) [µg/mL] | CC50 at 4 days ([2]; MT-2 cells) [µg/mL] | CC50 at 4 days [1] [µg/mL] | CC50 at 4 days [2] [µg/mL] | EC50 (HIV virus (IIIB)) [µg/mL] | EC50 (HIV-1IIIB virus strains) [µg/mL] | CC50 (H9 cells) [µg/mL] | CC50 (MT-2 cells) [µg/mL]
Cc1cc(Br)cc(C)c1Oc1cc(Nc2ccc(C#N)cc2)c(N)cc1[N+](=O)[O-] [Compound I-5, 4-(4′-Bromo-2′,6′-dimethylphenoxy)-N^2-(4′-cyanophenyl)-5-nitrobenzene-1,2-diamine] | >1000 | < 0.025 | < 0.02 | >3054 | > 25 | 61.1 (≈ 135 µM) | – | – | – | – | – | –
Cc1cc(C#N)cc(C)c1Oc1cc(Nc2ccc(C#N)cc2)c(N)cc1[N+](=O)[O-] [Compound I-11, 5-(4′-Cyano-2′,6′-dimethylphenoxy)-N^1-(4′-cyanophenyl)-4-nitrobenzene-1,2-diamine] | >1000 | < 0.025 | 0.013 (≈ 0.0325 µM) | 4715 | > 25 | 61.3 (≈ 153 µM) | – | – | – | – | – | –
Cc1cc(Br)cc(C)c1Oc1ccc(N)c(Nc2ccc(C#N)cc2)c1 [Compound I-13, 4-(4′-Bromo-2′,6′-dimethylphenoxy)-N^2-(4′-cyanophenyl)benzene-1,2-diamine] | 128 | 0.134 (≈ 0.328 µM) | 0.16 (≈ 0.392 µM) | 91 | 17.2 (≈ 42.1 µM) | 14.5 (≈ 35.5 µM) | – | – | – | – | – | –
Cc1cc(C#N)cc(C)c1Oc1cc(Nc2ccc(C#N)cc2)c(N)cc1N [Compound I-10, N^1-(4′-cyanophenyl)-5-(4′-Cyano-2′,6′-dimethylphenoxy)benzene-1,2,4-triamine] | >820 | < 0.025 | 0.008 (≈ 0.0217 µM) | 2425 | 20.5 (≈ 55.5 µM) | 19.4 (≈ 52.5 µM) | – | – | – | – | – | –
Cc1cc(Br)cc(C)c1Oc1cc(Nc2ccc(C#N)cc2)c(N)cc1N [Compound I-8, 5-(4′-Bromo-2′,6′-dimethylphenoxy)-N^1-(4′-cyanophenyl)benzene-1,2,4-triamine] | 239 | 0.068 (≈ 0.161 µM) | 0.13 (≈ 0.307 µM) | 132 | 16.2 (≈ 38.4 µM) | 17.2 (≈ 40.6 µM) | – | – | – | – | – | –
Cc1cc(C)c(Oc2cc(Nc3ccc(C#N)cc3)c([N+](=O)[O-])cc2[N+](=O)[O-])c(C)c1 [Compound I-14, N^1-(4′-cyanophenyl)-5-(2′,4′,6′-trimethylphenoxy)-2,4-dinitroaniline] | >174 | 0.144 (≈ 0.344 µM) | 0.7 (≈ 1.67 µM) | 41.09 | – | – | > 25 | 28.8 (≈ 68.7 µM) | – | – | – | –
Cc1cc(C)c(Nc2cc(Nc3ccc(C#N)cc3)c([N+](=O)[O-])cc2[N+](=O)[O-])c(C)c1 [Compound I-3, N^1-(4′-cyanophenyl)-2,4-dinitro-N^5-(2′,4′,6′-trimethylphenyl)-benzene-1,5-diamine] | >455 | 0.055 (≈ 0.132 µM) | 0.18 (≈ 0.431 µM) | >556 | – | – | > 25 | > 100 | – | – | – | –
CC(=O)ON(c1cc(Nc2ccc(C#N)cc2)c([N+](=O)[O-])cc1[N+](=O)[O-])c1c(C)cc(C)cc1C [Compound I-4, N^1-(4′-cyanophenyl)-2,4-dinitro-[N^5-acetoxy-N^5-(2′,4′,6′-trimethylphenyl)]benzene-1,5-diamine] | >14.15 | – | – | 23.45 | – | – | – | – | 1.77 (≈ 3.72 µM) | 2.61 (≈ 5.49 µM) | >25 | 61.21 (≈ 129 µM)
Cc1cccc(C)c1Oc1cc(Nc2ccc(C#N)cc2)c([N+](=O)[O-])cc1[N+](=O)[O-] [Compound I-2, N^1-(4′-cyanophenyl)-5-(2′,6′-dimethylphenoxy)-2,4-dinitroaniline] | >113 | 0.22 (≈ 0.544 µM) | 3.71 (≈ 9.17 µM) | >27 | – | – | > 25 | > 100 | – | – | – | –
Cc1cc(C#N)cc(C)c1Oc1ccc([N+](=O)[O-])c(Nc2ccc(C#N)cc2)c1 [Compound I-6, N^1-(4′-cyanophenyl)-5-(4′-cyano-2′,6′-dimethylphenoxy)-2-nitroaniline] | >312 | 0.08 (≈ 0.208 µM) | 6.63 (≈ 17.2 µM) | 8.53 | > 25 | 56.5 (≈ 147 µM) | – | – | – | – | – | –
Cc1cc(Br)cc(C)c1Oc1cc(Nc2ccc(C#N)cc2)c([N+](=O)[O-])cc1[N+](=O)[O-] [Compound I-1, N^1-(4′-cyanophenyl)-5-(2′,6′-dimethyl-4′-bromophenoxy)-2,4-dinitroaniline] | >234 | 0.11 (≈ 0.228 µM) | 0.14 (≈ 0.29 µM) | >714 | – | – | > 25 | > 100 | – | – | – | –
Cc1cccc(C)c1Oc1ccc([N+](=O)[O-])c(Nc2ccc(C#N)cc2)c1 [Compound I-7, N^1-(4′-cyanophenyl)-5-(2′,6′-dimethylphenoxy)-2-nitroaniline] | >33 | 0.76 (≈ 2.11 µM) | 1.18 (≈ 3.28 µM) | >85 | > 25 | > 100 | – | – | – | – | – | –
